Data from patent US20160243021A1, “Collagen-Boosting Compositions And Methods” (ELC MANAGEMENT LLC, priority 2015, published 2016).

Legend:
Type in all cases: cell-based, human
adult NHDF cells = assay: Collagen-boosting assay, Example 5 (PIP ELISA; NXP-75); conditions: 10 ng/ml; 3 days
Procedure: In this assay, NXP-75 was tested for its efficacy in boosting collagen synthesis in NHDFs. TGFβ (10 ng/ml) was run as a positive control. Adult NHDF cells were seeded and grown to confluence in a 96 well flat bottom plate prior to treatment. NXP-75 powder was prepared at the following dilutions: 0.0001, 0.001, 0.01 and 0.1% (w/v) in media (negative control). The plate was incubated for 3 days at 37° C./5% CO2. Supernatants were harvested and stored at −80° C. in siliconized tubes until the PIP ELISA was performed. For this assay, supernatants were diluted 1:200. […] TGFβ enhanced collagen synthesis by 20% compared with media.

adult NHDFs [1] = assay: Collagen-boosting assay, Example 4 (PIP ELISA; Mitostime); conditions: 10 ng/ml; 3 days
Procedure: Mitostime was tested for its collagen-boosting efficacy in NHDFs. TGFβ, at 10 ng/ml, was run as a positive control. Adult NHDFs were seeded and grown to confluence in a 96 well plate prior to treatment with mitostime 0.075%, 0.15% and 0.3% (w/v). The plate was incubated for 3 days at 37° C./5% CO2. Supernatants were harvested and stored at −80° C. in siliconized tubes until the PIP ELISA was performed as outlined in Example 1. For this assay, supernatants were diluted 1:200. […] TGFβ increased collagen synthesis by 27% (p=0.0001).

adult NHDFs [2] = assay: Collagen-boosting assay, Example 3 (PIP ELISA; Argireline); conditions: 3 days
Procedure: In this assay, Argireline was tested for its efficacy in boosting collagen synthesis in NHDFs. TGFβ was run as a positive control.
Adult NHDFs were seeded and grown to confluence in a 96 well plate prior to treatment with Argireline at concentrations of 0.001, 0.01, 0.1 and 1% (v/v) in media (negative control) or with 10 ng/ml TGFβ (positive control) in media.
The plate was incubated for 3 days at 37° C./5% CO2. Supernatants were harvested and stored at −80° C. in siliconized tubes until the PIP ELISA was performed, as described in Example 1. For this assay, supernatants were diluted 1:40.

adult NHDFs [3] = assay: Collagen-boosting assay, Example 4 (PIP ELISA; Mitostime in combination with Argireline); conditions: 10 ng/ml; 3 days
Procedure: Mitostime also was tested in combination with Argireline for efficacy in boosting collagen synthesis in NHDFs. TGFβ, at 10 ng/ml, was run as a positive control. Adult NHDFs were seeded and grown to confluence in a 96 well plate prior to treatment with Mitostime at 0.3%/Argireline peptide at 0.00005%; Mitostime at 0.15%/Argireline peptide at 0.000025%; and Mitostime at 0.075%/Argireline peptide at 0.0000125%. The plate was incubated for 3 days at 37° C./5% CO2. Supernatants were harvested and stored at −80° C. in siliconized tubes until the PIP ELISA was performed as outlined in Example 1. For this assay, supernatants were diluted 1:200. […] TGFβ increased collagen synthesis by 23%.

Substance | boost of collagen synthesis compared with media (adult NHDF cells) | increase in collagen synthesis compared with media (adult NHDFs [1]) | increase in collagen levels (adult NHDFs [2]; 10 ng/ml) | increase in collagen synthesis (adult NHDFs [3]) | increase in collagen synthesis compared with media (adult NHDFs [2]; 0.01%) | increase in collagen synthesis compared with media (adult NHDFs [2]; 0.1% (v/v))
TGFβ | 20% | 27% | 147% | 23% |  | 
acetyl hexapeptide-3 [Argireline] |  |  |  |  | 29% | 76%
